Reference: a melting point compilation (Tetko et al.; mined from patent text by program, amines drawn as free bases though some values may be those of a salt)

SMILES | melting point [°C]
Cc1c(C(=O)N[C@H](C)[C@](O)(Cn2cncn2)c2ccc(F)cc2F)cnn1-c1ccc(OC(F)(F)F)cc1 | 134 to 135
Cc1nc(-c2c(F)cccc2F)nn1-c1ccccc1C(F)(F)F | 80 to 82
N#CC(Oc1nsnc(Cl)c1=O)c1cccc(Oc2ccccc2)c1 (stereo not drawn) | 146 to 148
Cc1cccc(C)c1Nc1c(-c2c(Cl)cccc2OCC(N)=O)nc2ccc(F)cn12 | 186 to 187
COc1cc(CO)c([N+](=O)[O-])cc1OCCCC(=O)O | 172 to 175
CCN(CCSCc1[nH]cnc1C)C(=N)NC#N | 118 to 120
COc1ccc(C#CC(=Nc2ccc(OC)cc2)N2CCN(Cc3ccc(C)cc3)CC2)cc1 | 107
COc1cc(Nc2c(C#N)cnc3cc(C#Cc4ccccn4)sc23)c(Cl)cc1Cl | 237 to 239
CCCCc1nc2c(c(=O)[nH]1)CN(C(=O)C(C)(C)O)CC2 | 159 to 161
CCCCCCCCCCCCc1cc(C(=O)O)c(C)o1 | 70 to 73
CC(=O)O[C@H]1[C@H](OC(C)=O)[C@@H](CCl)OC[C@@H]1OC(C)=O | 129 to 131
O=C=Nc1ccc(OCCOc2ccc(N=C=O)cc2)cc1 | 95 to 97
CCCCCCCCCCCCN=C=O | 100 to 103
O=C(O)Cc1cn(CCc2ccc(OCc3ccccc3)cc2)nc1-c1ccccc1 | 199 to 200
COC1CC2(C)C(CCC3C4CCC(C(=O)COC(C)=O)C4(C)CC(=O)C32)CC1O (stereo not drawn) | 177 to 180
S=C(NCc1cccnc1)NC(=Nc1cccc2ccccc12)c1ccccc1 | 153 to 154
Cc1noc(C)c1NC(=O)c1ccc(OC(F)F)c2oc(C3CCOC3)cc12 (stereo not drawn) | 156
CCOC(=O)CCCN1CCC2(CC1)CN(c1ccc(C#N)cc1)C(=O)O2 | 78 to 80
Nc1cc(OCc2cccc(Cl)c2)c(C(=O)NC2CN3CCC2CC3)cc1Cl (stereo not drawn) | 168 to 169
CN(CCCNC(=O)NCCCCOc1cccc(CN2CCCCC2)c1)CCN(Cc1ccc(F)cc1)c1ccccn1 | 115
NC(=S)Nc1cc(Cl)ccc1N1CCOCC1 | 174 to 175

SMILES | melting point [°C]
COc1ccc(C2NCCS2)cc1OC (stereo not drawn) | 54 to 56
Cc1ccc(CO)nc1-c1ccccn1 | 51 to 53
Fc1ccc(Cn2c(CC3CCN(Cc4ccccc4)CC3)nc3cncnc32)cc1 | 136
Cc1nnc(-c2ccc3occ(-c4ccccc4C(F)(F)F)c3c2)o1 | 159 to 160
O=C(NCc1ccc(Cl)cc1)c1cn(-c2ccccn2)c2oc(CCl)cc2c1=O | 224 to 227
COc1cc(Br)ccc1-c1ccc(Br)cc1[N+](=O)[O-] | 127 to 129
CCOC(=O)C(=NOC(C)C)c1csc(N)n1 | 162 to 164
COC(=O)CN1CCc2[nH]c(=O)n3nc(-c4ccccc4F)nc3c2C1 | 265 to 266
CC(C)(C#N)Cc1cccc(CC(C)(C)C#N)c1 | 58 to 63
O=C1c2ccccc2C(=O)N1CC(O)COc1cccc2ccccc12 (stereo not drawn) | 152 to 154
O=[N+]([O-])c1ccc2c(c1)C(c1ccccc1Cl)=NCc1nc(CO)cn1-2 | 173 to 174
CC(/C=C/c1ccccc1-c1ccc2c(c1)C(C)(C)CCC2(C)C)=C\C(=O)O | 178 to 179
COc1cccc([C@H]2O[C@H](CC(N)=O)C(=O)N(CC(C)(C)C)c3ccc(Cl)cc32)c1OC | 170 to 172
CN1CCC(=C2c3ccccc3CCn3ncnc32)CC1 | 127
CCOC(=O)COc1ccc(SCCc2cccc3sc(-c4ccc(C(F)(F)F)cc4)nc23)cc1C | 97 to 100
CCN(c1ccc(Cl)cc1C(O)c1ccccc1Cl)S(=O)(=O)c1ccc(OC)c(OC)c1 (stereo not drawn) | 154
CCC1(CC)OC(=O)Nc2ccc(Br)cc21 | 150 to 152
COc1ccc2c(c1)[C@](C)(NC(=O)c1cc3cccc4c3n1CC4)C(=O)N2c1ccc(F)cc1 | 277 to 278
CCCOc1ccc(S(=O)(=O)N2CCOCC2)cc1-c1nc2c([nH]1)c1nncn1c(=O)n2CCC | 169
CCOC(=O)c1c(C(F)(F)F)ncc(C(=O)O)c1OC(C)C | 97 to 99
FC(F)(F)c1ccc(-c2ncc(C#Cc3cc4ccccc4s3)s2)cc1 | 178 to 180

SMILES | melting point [°C]
COC(=O)/C=C/c1cccc(Br)c1 | 53 to 55
Cc1cc(OS(=O)(=O)c2c(F)cccc2F)cc2c(C3CCN(C)CC3)cn(C)c12 | 139
CCCCCCCCCCCCc1nc(NC(=O)Nc2c(C(C)C)cccc2C(C)C)n[nH]1 | 154 to 164
CN1Cc2c(-c3noc(CCl)n3)ncn2-c2cccc(Br)c2C1=O | 242 to 244
COc1cc(Nc2c(C#N)cnc3cc4cc(OCCN5CCC(O)CC5)c(OC)cc4cc23)c(Cl)cc1C | 210 to 215
CCOC(=O)c1c(C)cc(O)c(C(=O)OCC)c1O | 61 to 62
CC(C)C1NC(=O)C(CSSCC2NC(=O)C(C(C)C)NC2=O)NC1=O (stereo not drawn) | 270
Cn1nc(C(F)(F)F)n(-c2ccc(N)cc2Cl)c1=S | 145 to 147
Cc1cc(NC(=O)c2c(C(F)(F)F)nc3c(C(F)(F)F)cccc3c2O)no1 | 216
Nc1ccc2c(c1)CNCCS2 | 110 to 111
CC(C)(C)C(=O)Nc1ccc(Br)cn1 | 57 to 59
COc1cc(C(=O)N2Cc3cccn3Cc3ccccc32)ccc1-c1ccccc1C(F)(F)F | 146 to 148
O=C(c1ccccc1)c1ccc(OCc2nnn[nH]2)c(Cl)c1Cl | 184 to 186
CN(c1ccncc1)N1CCc2cc(O)ccc2C1 | 263 to 266
CCN(CC)CCNC(=O)c1cc2cc(I)ccc2[nH]1 | 208 to 210
CCCCCCCCCCCCCc1c[nH]c(C(=O)OCC)c1 | 59 to 60
O=C1N[C@@H](Cc2ccccc2)C(c2ccccc2)(c2ccccc2)O1 | 259 to 261
NC(=O)Nc1ccccc1CCc1n[nH]c2c1c(=O)n(-c1ccccc1)c1ncccc21 | 300 to 305
CCN1C(=O)C(C)(C)C(=O)N(C)c2cc(CN(CCn3ccc4ccsc4c3=O)Cc3cccnc3C)ccc21 | 125 to 127
N#Cc1ccc(CCc2n[nH]c3c2c(=O)n(-c2ccccc2)c2ncccc32)cc1 | 267 to 269
O=c1oc(-c2cccnc2)cc(O)c1SCc1ccccc1 | 183 to 184

Continued, values first:

melting point [°C] | SMILES
78 to 80 | CCOC(=O)C(Cc1ccc(OCCN2CCC(C)(C)c3cc(C(=NOC)c4ccccc4)ccc32)cc1)Nc1ccccc1C(=O)c1ccccc1 (stereo not drawn)
130 to 131 | CC(C)(C)OC(=O)NC(Cc1ccccc1)C(=O)OC(Cc1c[nH]cn1)C(=O)O (stereo not drawn)
214 to 215 | CC(C)C(=O)Nc1c(N)cc(Br)cc1OCc1ccccc1
230 to 232 | NNC(=O)c1cc(N2CCN(c3ccc([N+](=O)[O-])cc3)CC2)ccn1
51 to 52 | COC(=O)CCc1ccc(OCCN(C)c2nc3ccccc3o2)cc1
165 to 166 | CC(=O)OCS(=O)(=O)c1c(F)cc(-c2c(-c3ccccc3)noc2C)cc1F
71 | COC(=O)CCCc1cc2nc(Cl)ccc2n1S(=O)(=O)c1cccc2nccnc12
71 to 72 | C[C@@H](CO)Oc1ccc2cc(Br)ccc2c1
85.5 to 87 | CCNC(=O)c1ccccc1NS(=O)(=O)C(F)(F)F
250 to 251 | CC(C)(C)c1ccc(C(=O)Nc2cn3cc(F)ccc3n2)cc1
133 to 134 | CCOC(=O)C1=C(C)NC(C)=C(C(=O)c2ccco2)C1c1ccccc1[N+](=O)[O-] (stereo not drawn)
134 to 135 | CCCc1nn(-c2ccc(C(F)(F)F)cn2)cc1CCCOc1ccc(CC(=O)O)c(C)c1
73 to 76 | COc1ccc2nc(CC(C)C)c(CN)c(-c3ccccc3)c2c1
168 to 169 | CNC(=O)Cc1c(C)n(-c2ccnc3cc(Cl)ccc23)c2ccc(OC)cc12
153 to 155 | CC(=O)c1ccc(NS(C)(=O)=O)c(C(=O)Nc2ccc(F)cc2F)c1
93 to 94 | CCOC(=O)COc1ccc(NS(C)(=O)=O)c(C)c1
117 to 120 | Nc1cccc(NC(=O)C(=O)N2CCC(Cc3ccc(F)cc3)CC2)c1
204 to 206 | CCCCCCCCCCNC(=O)Nc1ccccc1C(=O)NC1CCN(C(c2ccccc2)c2ccccc2)CC1

melting point [°C] | SMILES
98 to 99 | CCOC(=O)C(NC(=O)c1ccc(C)cc1)C(=O)OCC
180 to 186 | CCCCCCCP(=O)(O)O[C@@H](CCCCN)C(=O)N1CCC[C@H]1C(=O)O
101 to 103 | COc1ccc2c(c1)C(=O)C(Cc1ccccc1)CN2S(=O)(=O)c1ccc(C)cc1 (stereo not drawn)
140 to 145 | O=C(C1=C(c2ccccc2)c2ccccc2S1=O)c1ccc(O)cc1 (stereo not drawn)
112 to 114 | C#CCOC(=O)Oc1ccc(S(=O)(=O)c2ccc(OC(=O)OCC#C)cc2)cc1
222 to 224 | Cc1ccc(-c2cc(CN3C(=O)c4ccccc4C3=O)c(=O)n(CC(C)C)n2)cc1
206 to 207 | CC(=O)Nc1ccc(C(=O)SC[C@@H](C)C(=O)N2CSC[C@H]2C(=O)O)cc1
68 to 73 | O=C(O)C(=O)c1ccc(F)c(Br)c1
140 to 142 | CCOC(=O)c1cnn(-c2ccccn2)c1S(=O)(=O)NC(=O)Nc1nc(OC)cc(OC)n1
188 to 190 | O=C(c1ccc([N+](=O)[O-])cc1)N1Cc2cccn2Cc2ccccc21
143 to 145 | CCOC(=O)C(=CNc1coc2ccc(Cl)cc2c1=O)C(=O)OCC
112 to 114 | O=C(O)CCCCCOc1nc(-c2ccccc2)c2ccccc2n1
99 to 100 | COc1ccc(C(=C/C=C/C(=O)NCCCCCc2ccccn2)c2ccc(OC)cc2)cc1
78 to 80 | O=C(CC1CCCCC1=O)c1ccc(Br)cc1 (stereo not drawn)
215 to 216 | CC(=O)Nc1cccc(C#Cc2c(F)c(F)nc(F)c2F)c1
74 | CCOC(=O)C(NC(=O)c1ccccc1)C(C)C (stereo not drawn)
212 | CC(=O)N1C(=O)N(c2cc(Cl)cc(Cl)c2)C(=O)C1=Cc1ccc(C#N)cc1
